Here are results for three molecules from article PMC10609148 (Molecules, 2023).

As usually defined, the IC50 is the point on the concentration scale where inhibition reaches its midpoint.

Entries after “also recorded” stand apart in the source; their conditions may differ.

Series [1] addresses Aβ(1–42)/calbindin-D28k complex (Homo sapiens, UniProt P05067). Description: Antagonism of Aβ(1–42) HiLyte-Fluor555/calbindin-D28k interaction (fluorescence). The format is biochemical, human recombinant calbindin-D28k.
Description: The purified protein were aliquoted and conserved in 30% glycerol at −80 °C until use.
In another series the target is T1, Aβ(1–42)/CaM complex (Homo sapiens, UniProt P05067).
T1 construct: purchased Merck-Sigma-Aldrich (CaM); AnaSpec (labelled Aβ peptide); host or cells: bovine brain
T1 sequence (P05067 672-713 limits assumed, one chain of several): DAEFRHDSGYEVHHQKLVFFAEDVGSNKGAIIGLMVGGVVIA
Description: Antagonism of Aβ(1–42) HiLyte-Fluor555/CaM interaction (fluorescence). Type of series: biochemical, Bovine brain CaM. Here is the method:
Human Aβ(1–42)-HiLyte^TM-Fluor555 was purchased from AnaSpec (Freemont, CA, USA). […] His6 was purchased from Quimigen (Madrid, Spain). Bovine brain CaM and Thrombin Clean Cleavage^TM kit were purchased from Merck-Sigma-Aldrich (Madrid, Spain).
Fluorescence measurements were performed using a Fluoromax+ fluorescence Spectrophotometer (Horiba Jobin Yvon IBH Ltd., Glasgow, UK) in quartz cuvettes of 1cm light pathlength with a total volume of 2.5 mL at room temperature (24–25 °C), with excitation and emission slits of 5 nm.
The measurements of the kinetics of fluorescence have been performed in buffer 50 mM N-[2-hydroxyethyl] piperazine-N′-[2-ethanesulfonic acid], 100 mM KCl and 50 µM CaCl2 (pH 7.05).
CaM and calbindin-D28k were added from concentrated stock solutions freshly prepared in the assay buffer used in the fluorescence measurements, such that the total added volume was always lower than 10 μL.

The subject of series [2] is human recombinant Cb5R with a His6-tag. Description: FRET between FAD of His6-tagged Cb5R and Aβ(1–42) HiLyte-Fluor555. The format is binding. Particulars: calculated for saturation by Aβ(1–42) HiLyte-Fluor555. Here is the method: (§1) The assay buffer was 20 mM phosphate/0.1 mM diethylenetriaminepentaacetic acid (pH 7).
The test system is the same in series [3]. Description: Inhibition of NADH-dependent Cb5 reductase activity of His6-tagged Cb5R. The format is biochemical. Conditions: pH 7, 5 μM Cb5, 0.25 mM NADH.
Description: The reaction was started by the addition of 0.25 mM NADH after 10 min preincubation of the Cb5R in the assay medium, and initial rates were measured during periods of time ranging between 5 and 10 min, with a less than 10% drop in the Cb5 concentration in the assay cuvette. The Cb5 reductase activity was calculated from the change of absorbance at 550 nm using a differential extinction coefficient between reduced and oxidized Cb5 of 16.5 mM^−1·cm^−1, as in previous works [67, 69].
Series [4] shares this test system. Nature of the series: Titration of FAD fluorescence of His6-tagged Cb5R. The format is binding. Here is the method: as §1
The conditions of series [5]: 177 μM in phosphate-buffered saline; Tricine-SDS-PAGE; cited from earlier work.
For series [6] the following is noted: cited from earlier work. The source says:
Aβ peptides bind to ganglioside-clustered raft-like membrane microdomains, which foster the formation of Aβ oligomers and fibrils in a cholesterol-dependent manner. […] Moreover, plasma membrane lipid rafts play an active role in extracellular Aβ uptake and internalization in neurons. After the uptake of extracellular Aβ(1–42) into neurons, the intracellular ...

Aβ(1–42)/calbindin-D28k complex, sequence (P05067 672-713 limits assumed, one chain of several): as above

Regarding `N[C@@H](Cc1c[nH]cn1)C(=O)N[C@@H](Cc1c[nH]cn1)C(=O)N[C@@H](Cc1c[nH]cn1)C(=O)N[C@@H](Cc1c[nH]cn1)C(=O)N[C@@H](Cc1c[nH]cn1)C(=O)N[C@@H](Cc1c[nH]cn1)C(=O)O` [His6, hexa-histidine], the IC50 (in series [1]; on Aβ(1–42)/CaM complex) was at most 1 µM in each case.
For “Aβ(1–42) HiLyte^TM-Fluor555: Human Aβ(1–42) with HiLyte-Fluor555 dye covalently bound to ASP1; AnaSpec”, the “quenching of donor FAD fluorescence at saturation” value in series [2] is 70 ± 7%.
As for “Aβ(1–42): prevalent Aβ peptide found in the amyloid plaques of AD patients; supplied by StabVida and GenicBio”, the “inhibition of Cb5 reductase activity (in words)” value in series [3] is on record as “potent inhibition of this activity by nanomolar Aβ(1–42) concentrations”. The “fitted maximum of FAD fluorescence increase (ΔF/F0)” value in series [4] (Figure 5 fit, 1:1 binding, triplicate) was 0.5227. In series [4] (absence vs presence of 5 μM Cb5), the “effect of Cb5 on the titration of FAD fluorescence” value is “the same in the absence and presence of 5 μM of Cb5; also recorded: not a significant difference”. For the same molecule, in series [5], the “fraction of monomers and higher molecular species” value is “almost undetectable”. In addition, the “critical concentration that induces fibrillization” value in series [6] was “submicromolar range”.
